# From patent US8273754B2, “Substituted 1H-pyrazolo[3,4-D]pyrimidine-6-amine compounds” (ArQule, Inc., priority 2008, dated 2012)
# Like-named read-outs stand apart in the source and are kept apart here.
# System: cancer cells
# Assay: MTS cell growth inhibition assay (72 hours)
# Type: cell-based
# Method in brief: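 Cells in DMEM with 1% FBS, seeded 18 h, then compound-treated 72 h at 37 °C. Viability by MTS/PMS for 4 h, formazan absorbance at 492 nm; IC50 taken as concentration giving 50% absorbance drop, activity banded by percent inhibition.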
# [1] = Homo sapiens, DLD-1, 72 h, DLD-1 cells, read-out: DLD-1 MTS 72 hr at 10 μM
# [2] = Homo sapiens, KATO III, 72 h, KATO III cells, read-out: KATO III MTS 72 hr at 10 μM
# [3] = Homo sapiens, MDA-MB-231, 72 h, MDA-MB-231 cells, read-out: MDA-MB-231 MTS 72 hr at 10 μM
# [4] = Homo sapiens, NCI-H1299, 72 h, NCI-H1299 cells, read-out: NCI-H1299 MTS 72 hr at 10 μM
# [5] = PaCa-2, 72 h, PACA-2 cells, read-out: PACA-2 MTS 72 hr at 10 μM
SMILES,inhibition at 10 µM [1],inhibition at 10 µM [2],inhibition at 10 µM [3],inhibition at 10 µM [4],inhibition at 10 µM [5]
"Cc1cccc(NC(=O)Nc2ccc(S(=O)(=O)N3CC(Nc4nc(N)nc5[nH]ncc45)Cc4ccccc43)cc2)c1 (centres unmarked) [Compound 195, 1-[4-({3-[(6-amino-1H-pyrazolo[3,4-d]pyrimidin-4-yl)amino]-3,4-dihydroquinolin-1(2H)-yl}sulfonyl)phenyl]-3-(3-methylphenyl)urea]",> 79%,> 79%,> 79%,< 50%,> 79%
"Nc1nc(NC2Cc3ccccc3N(S(=O)(=O)c3ccc(NC(=O)Nc4cc(C(F)(F)F)ccc4F)cc3)C2)c2cn[nH]c2n1 (centres unmarked) [Compound 196, 1-[4-({3-[(6-amino-1H-pyrazolo[3,4-d]pyrimidin-4-yl)amino]-3,4-dihydroquinolin-1(2H)-yl}sulfonyl)phenyl]-3-[2-fluoro-5-(trifluoromethyl)phenyl]urea]",> 79%,> 79%,> 79%,50 to 79%,> 79%
"Nc1nc(NC2Cc3ccccc3N(S(=O)(=O)c3ccc(NC(=O)Nc4cc(F)cc(C(F)(F)F)c4)cc3)C2)c2cn[nH]c2n1 (centres unmarked) [Compound 197, 1-[4-({3-[(6-amino-1H-pyrazolo[3,4-d]pyrimidin-4-yl)amino]-3,4-dihydroquinolin-1(2H)-yl}sulfonyl)phenyl]-3-[3-fluoro-5-(trifluoromethyl)phenyl]urea]",> 79%,> 79%,> 79%,> 79%,> 79%
"Nc1nc(NC2Cc3ccccc3N(S(=O)(=O)c3ccc(NC(=O)Nc4ccc5c(c4)Cc4ccccc4-5)cc3)C2)c2cn[nH]c2n1 (centres unmarked) [Compound 198, 1-[4-({3-[(6-amino-1H-pyrazolo[3,4-d]pyrimidin-4-yl)amino]-3,4-dihydroquinolin-1(2H)-yl}sulfonyl)phenyl]-3-(9H-fluoren-2-yl)urea]",> 79%,> 79%,< 50%,> 79%,< 50%
"Nc1nc(NC2Cc3ccccc3N(S(=O)(=O)c3cccc(NC(=O)Nc4cccc(C(F)(F)F)c4)c3)C2)c2cn[nH]c2n1 (centres unmarked) [Compound 199, 1-[3-({3-[(6-amino-1H-pyrazolo[3,4-d]pyrimidin-4-yl)amino]-3,4-dihydroquinolin-1(2H)-yl}sulfonyl)phenyl]-3-[3-(trifluoromethyl)phenyl]urea]",> 79%,> 79%,> 79%,> 79%,> 79%
"Nc1nc(NC2Cc3ccccc3N(S(=O)(=O)c3cccc(NC(=O)Nc4ccccc4)c3)C2)c2cn[nH]c2n1 (centres unmarked) [Compound 200, 1-[3-({3-[(6-amino-1H-pyrazolo[3,4-d]pyrimidin-4-yl)amino]-3,4-dihydroquinolin-1(2H)-yl}sulfonyl)phenyl]-3-phenylurea]",< 50%,< 50%,< 50%,< 50%,< 50%
"Nc1nc(NC2Cc3ccccc3N(S(=O)(=O)c3cccc(NC(=O)Nc4cccc(Cl)c4)c3)C2)c2cn[nH]c2n1 (centres unmarked) [Compound 201, 1-[3-({3-[(6-amino-1H-pyrazolo[3,4-d]pyrimidin-4-yl)amino]-3,4-dihydroquinolin-1(2H)-yl}sulfonyl)phenyl]-3-(3-chlorophenyl)urea]",> 79%,> 79%,> 79%,> 79%,> 79%
"Nc1nc(NC2Cc3ccccc3N(S(=O)(=O)c3cccc(NC(=O)Nc4ccc5c(c4)Cc4ccccc4-5)c3)C2)c2cn[nH]c2n1 (centres unmarked) [Compound 202, 1-[3-({3-[(6-amino-1H-pyrazolo[3,4-d]pyrimidin-4-yl)amino]-3,4-dihydroquinolin-1(2H)-yl}sulfonyl)phenyl]-3-(9H-fluoren-2-yl)urea]",> 79%,> 79%,> 79%,50 to 79%,> 79%
"Nc1nc(NC2Cc3ccccc3N(S(=O)(=O)c3cccc(NC(=O)Nc4c(F)cccc4F)c3)C2)c2cn[nH]c2n1 (centres unmarked) [Compound 203, 1-[3-({3-[(6-amino-1H-pyrazolo[3,4-d]pyrimidin-4-yl)amino]-3,4-dihydroquinolin-1(2H)-yl}sulfonyl)phenyl]-3-(2,6-difluorophenyl)urea]",< 50%,< 50%,< 50%,< 50%,50 to 79%
"Nc1nc(NC2Cc3ccccc3N(S(=O)(=O)c3cccc(NC(=O)Nc4c(F)cccc4C(F)(F)F)c3)C2)c2cn[nH]c2n1 (centres unmarked) [Compound 204, 1-[3-({3-[(6-amino-1H-pyrazolo[3,4-d]pyrimidin-4-yl)amino]-3,4-dihydroquinolin-1(2H)-yl}sulfonyl)phenyl]-3-[2-fluoro-6-(trifluoromethyl)phenyl]urea]",< 50%,< 50%,< 50%,< 50%,50 to 79%
"Cc1cccc(NC(=O)Nc2cccc(S(=O)(=O)N3CC(Nc4nc(N)nc5[nH]ncc45)Cc4ccccc43)c2)c1 (centres unmarked) [Compound 205, 1-[3-({3-[(6-amino-1H-pyrazolo[3,4-d]pyrimidin-4-yl)amino]-3,4-dihydroquinolin-1(2H)-yl}sulfonyl)phenyl]-3-(3-methylphenyl)urea]",50 to 79%,> 79%,50 to 79%,< 50%,> 79%
"Nc1nc(NC2Cc3ccccc3N(S(=O)(=O)c3cccc(NC(=O)Nc4c(F)cc(Br)cc4F)c3)C2)c2cn[nH]c2n1 (centres unmarked) [Compound 206, 1-[3-({3-[(6-amino-1H-pyrazolo[3,4-d]pyrimidin-4-yl)amino]-3,4-dihydroquinolin-1(2H)-yl}sulfonyl)phenyl]-3-(4-bromo-2,6-difluorophenyl)urea]",< 50%,50 to 79%,< 50%,< 50%,50 to 79%
"Nc1nc(NC2Cc3ccccc3N(S(=O)(=O)c3cccc(NC(=O)Nc4ccc(F)c(F)c4)c3)C2)c2cn[nH]c2n1 (centres unmarked) [Compound 207, 1-[3-({3-[(6-amino-1H-pyrazolo[3,4-d]pyrimidin-4-yl)amino]-3,4-dihydroquinolin-1(2H)-yl}sulfonyl)phenyl]-3-(3,4-difluorophenyl)urea]",> 79%,> 79%,> 79%,> 79%,> 79%
"Nc1nc(NC2Cc3ccccc3N(S(=O)(=O)c3cccc(NC(=O)Nc4c(Cl)cccc4Cl)c3)C2)c2cn[nH]c2n1 (centres unmarked) [Compound 208, 1-[3-({3-[(6-amino-1H-pyrazolo[3,4-d]pyrimidin-4-yl)amino]-3,4-dihydroquinolin-1(2H)-yl}sulfonyl)phenyl]-3-(2,6-dichlorophenyl)urea]",< 50%,< 50%,< 50%,< 50%,50 to 79%
"Nc1nc(NC2Cc3ccccc3N(S(=O)(=O)c3cccc(NC(=O)Nc4ccc(C(F)(F)F)cc4)c3)C2)c2cn[nH]c2n1 (centres unmarked) [Compound 209, 1-[3-({3-[(6-amino-1H-pyrazolo[3,4-d]pyrimidin-4-yl)amino]-3,4-dihydroquinolin-1(2H)-yl}sulfonyl)phenyl]-3-[4-(trifluoromethyl)phenyl]urea]",> 79%,> 79%,> 79%,> 79%,> 79%
"Nc1nc(NC2Cc3ccccc3N(S(=O)(=O)c3cccc(NC(=O)NCc4ccccc4)c3)C2)c2cn[nH]c2n1 (centres unmarked) [Compound 210, 1-[3-({3-[(6-amino-1H-pyrazolo[3,4-d]pyrimidin-4-yl)amino]-3,4-dihydroquinolin-1(2H)-yl}sulfonyl)phenyl]-3-benzylurea]",< 50%,< 50%,< 50%,< 50%,< 50%
"Nc1nc(NC2Cc3ccccc3N(S(=O)(=O)c3cccc(NC(=O)Nc4cccc(Cl)c4Cl)c3)C2)c2cn[nH]c2n1 (centres unmarked) [Compound 211, 1-[3-({3-[(6-amino-1H-pyrazolo[3,4-d]pyrimidin-4-yl)amino]-3,4-dihydroquinolin-1(2H)-yl}sulfonyl)phenyl]-3-(2,3-dichlorophenyl)urea]",> 79%,> 79%,> 79%,> 79%,> 79%
"Nc1nc(NC2Cc3ccccc3N(S(=O)(=O)c3cccc(NC(=O)Nc4ccc5ccccc5c4)c3)C2)c2cn[nH]c2n1 (centres unmarked) [Compound 212, 1-[3-({3-[(6-amino-1H-pyrazolo[3,4-d]pyrimidin-4-yl)amino]-3,4-dihydroquinolin-1(2H)-yl}sulfonyl)phenyl]-3-(2-naphthyl)urea]",> 79%,> 79%,> 79%,> 79%,> 79%
"Cc1ccccc1NC(=O)Nc1cccc(S(=O)(=O)N2CC(Nc3nc(N)nc4[nH]ncc34)Cc3ccccc32)c1 (centres unmarked) [Compound 213, 1-[3-({3-[(6-amino-1H-pyrazolo[3,4-d]pyrimidin-4-yl)amino]-3,4-dihydroquinolin-1(2H)-yl}sulfonyl)phenyl]-3-(2-methylphenyl)urea]",< 50%,> 79%,< 50%,< 50%,50 to 79%
